# Experimental data taken from patent US12692254B2, “Benzimidazole inhibitors of PAD enzymes” (BRISTOL-MYERS SQUIBB COMPANY, priority 2018, dated 2026).
# Target: human PAD4 (hPAD4) (Homo sapiens, UniProt Q9UM07)
# Experiment: RFMS human PAD4 functional assay (rapid-fire mass spectrum)
# Assay type: biochemical
# Conditions: 5 nM hPAD4 enzyme, 250 μM BAEE, 50 μM Calcium; 30 min preincubation, 90 min reaction at 37° C.
# Outline: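 PAD4 (10 nM) preincubated 30 min with compound (top final 50 μM), then BAEE substrate added in pH 7.5 HEPES buffer with DTT, 50 μM calcium, TPEN; 90 min at 37° C. After TCA quench, citrulline derivatized with phenyl glyoxal (4 mM final, 30 min, 37° C) and quantified by RapidFire MS against internal standard.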
# Chain of human PAD4 (hPAD4) (Q9UM07 whole entry): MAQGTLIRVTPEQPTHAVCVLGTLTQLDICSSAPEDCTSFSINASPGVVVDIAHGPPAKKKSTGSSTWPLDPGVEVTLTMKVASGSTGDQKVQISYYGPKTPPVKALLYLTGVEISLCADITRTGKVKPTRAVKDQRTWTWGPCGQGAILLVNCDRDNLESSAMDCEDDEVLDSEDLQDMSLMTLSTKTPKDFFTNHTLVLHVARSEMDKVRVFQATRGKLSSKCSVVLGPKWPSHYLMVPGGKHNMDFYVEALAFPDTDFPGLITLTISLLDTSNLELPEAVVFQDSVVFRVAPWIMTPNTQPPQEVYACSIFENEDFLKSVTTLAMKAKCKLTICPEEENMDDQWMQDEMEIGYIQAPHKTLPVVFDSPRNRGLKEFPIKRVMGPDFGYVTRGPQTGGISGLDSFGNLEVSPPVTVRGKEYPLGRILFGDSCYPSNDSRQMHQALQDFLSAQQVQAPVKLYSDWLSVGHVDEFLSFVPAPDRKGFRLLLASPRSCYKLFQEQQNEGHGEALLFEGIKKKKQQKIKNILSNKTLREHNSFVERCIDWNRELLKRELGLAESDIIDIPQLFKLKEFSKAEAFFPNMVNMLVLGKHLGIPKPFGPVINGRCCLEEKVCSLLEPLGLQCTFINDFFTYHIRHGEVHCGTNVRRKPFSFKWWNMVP
row,Compound,IC50 [nM]
1,"COc1cc(C(=O)N2C[C@H](N)C[C@@H](F)C2)cc2nc(-c3cc4cccnc4n3CC3CC3)n(CC3CN(C(=O)c4ccccc4)C3)c12 [Example 452, (3R,5R)-1-{[(1-benzoylazetidin-3-yl)methyl]-2-[1-(cyclopropylmethyl)-1H-pyrrolo[2,3-b]pyridin-2-yl]-7-methoxy-1H-1,3-benzodiazole-5-carbonyl}-5-fluoropiperidin-3-amine]",48
2,"COc1cc(C(=O)N2C[C@H](N)C[C@@H](F)C2)cc2nc(-c3cc4cccnc4n3CC3CC3)n(Cc3cnn(-c4cccc(Cl)n4)c3)c12 [Example 389, (3R,5R)-1-(1-{[1-(6-chloropyridin-2-yl)-1H-pyrazol-4-yl]methyl}-2-[1-(cyclopropylmethyl)-1H-pyrrolo[2,3-b]pyridin-2-yl]-7-methoxy-1H-1,3-benzodiazole-5-carbonyl)-5-fluoropiperidin-3-amine]",43
3,"COc1cc(C(=O)N2CC3CCC2[C@@H]3N)cc2nc(-c3cc4ccccc4n3CC3CC3)n(CC3CN(C(=O)C4CCC(F)(F)C4)C3)c12 (stereo partly drawn) [Example 139, (1R,4R,7R)-2-{2-[1-(cyclopropylmethyl)-1H-indol-2-yl]-1-{[1-(3,3-difluorocyclopentanecarbonyl)aze-tidin-3-yl]methyl}-7-methoxy-1H-1,3-benzodiazole-5-carbonyl}-2-azabicyclo[2.2.1]heptan-7-amine]",12
4,"COc1cc(C(=O)N2CC3CCC2[C@@H]3N)cc2nc(-c3cc4ccccc4n3CC3CC3)n(Cc3cnn(-c4cccnc4C#N)c3)c12 (stereo partly drawn) [Example 385, 3-[4-({5-[(7R)-7-amino-2-azabicyclo[2.2.1]heptane-2-carbonyl]-2-[1-(cyclopropylmethyl)-1H-indol-2-yl]-7-methoxy-1H-1,3-benzodiazol-1-yl}methyl)-1H-pyrazol-1-yl]pyridine-2-carbonitrile]",42
5,"COc1cc(C(=O)N2CC3CCC2[C@@H]3N)cc2nc(-c3cc4ccccc4n3CC3CC3)n(Cc3cnn(C)n3)c12 (stereo partly drawn) [Example 505, (7R)-2-{2-[1-(cyclopropylmethyl)-1H-indol-2-yl]-7-methoxy-1-[(2-methyl-2H-1,2,3-triazol-4-yl)methyl]-1H-1,3-benzodiazole-5-carbonyl}-2-azabicyclo[2.2.1]heptan-7-amine]",163
6,"COc1cc(C(=O)N2C[C@H]3CC[C@@H]2[C@@H]3N)cc2nc(-c3cc4cccnc4n3CC3CC3)n(CC3CN(C(=O)c4ccncn4)C3)c12 [Example 111, (1R,4R,7R)-2-{2-[1-(cyclopropylmethyl)-1H-pyrrolo[2,3-b]pyridin-2-yl]-7-methoxy-1-{[1-(pyrimidine-4-carbonyl)azetidin-3-yl]methyl}-1H-1,3-benzodiazole-5-carbonyl}-2-azabicyclo[2.2.1]heptan-7-amine]",51
7,"COc1cc(C(=O)N2C[C@H](N)C[C@@H](F)C2)cc2nc(-c3cc4ccccc4n3CC3CC3)n(Cc3cnn(C)c3)c12 [Example 257, (3R,5R)-1-{2-[1-(cyclopropylmethyl)-1H-indol-2-yl]-7-methoxy-1-[(1-methyl-1H-pyrazol-4-yl)methyl]-1H-1,3-benzodiazole-5-carbonyl}-5-fluoropiperidin-3-amine]",41
8,"COc1cc(C(=O)N2C[C@H]3CC[C@@H]2[C@@H]3N)cc2nc(-c3cc4ccccc4n3CC3CC3)n(CC3CN(C(=O)c4nn[nH]n4)C3)c12 [Example 173, (1R,4R,7R)-2-{2-[1-(cyclopropylmethyl)-1H-indol-2-yl]-7-methoxy-1-{[1-(2H-1,2,3,4-tetrazole-5-carbonyl)azetidin-3-yl]methyl}-1H-1,3-benzodiazole-5-carbonyl}-2-azabicyclo[2.2.1]heptan-7-amine]",50
9,"COc1cc(C(=O)N2CC(Cn3c(-c4cc5ccccc5n4CC4CC4)nc4cc(C(=O)N5CC6CCC5[C@@H]6N)cc(OC)c43)C2)ccn1 (stereo partly drawn) [Example 417, (7R)-2-{2-[1-(cyclopropylmethyl)-1H-indol-2-yl]-7-methoxy-1-{[1-(2-methoxypyridine-4-carbonyl)azetidin-3-yl]methyl}-1H-1,3-benzodiazole-5-carbonyl}-2-azabicyclo[2.2.1]heptan-7-amine]",11
10,"COc1cc(C(=O)N2C[C@H](N)C[C@@H](F)C2)cc2nc(-c3cc4ccccc4n3CC3CC3)n(CC3CN(c4ccnc(C#N)n4)C3)c12 [Example 4, 4-(3-((5-((3R,5R)-3-amino-5-fluoropiperidine-1-carbonyl)-2-(1-(cyclopropylmethyl)-1H-indol-2-yl)-7-methoxy-1H-benzo[d]imidazol-1-yl)methyl)azetidin-1-yl)pyrimidine-2-carbonitrile]",35
11,"COc1cc(C(=O)N2C[C@H](N)C[C@@H](F)C2)cc2nc(-c3cc4cccnc4n3CC3CC3)n(Cc3cnn(-c4cccc(C)n4)c3)c12 [Example 363, (3R,5R)-1-{2-[1-(cyclopropylmethyl)-1H-pyrrolo[2,3-b]pyridin-2-yl]-7-methoxy-1-{[1-(6-methylpyridin-2-yl)-1H-pyrazol-4-yl]methyl}-1H-1,3-benzodiazole-5-carbonyl}-5-fluoropiperidin-3-amine]",25
12,"CCn1cc(Cn2c(-c3cc4ccccc4n3CC3CC3)nc3cc(C(=O)N4C[C@H](N)C[C@@H](F)C4)cc(OC)c32)cn1 [Example 487, (3R,5R)-1-{2-[1-(cyclopropylmethyl)-1H-indol-2-yl]-1-[(1-ethyl-1H-pyrazol-4-yl)methyl]-7-methoxy-1H-1,3-benzodiazole-5-carbonyl}-5-fluoropiperidin-3-amine]",46
13,"Cc1cc(C(=O)N2CC3CCC2[C@@H]3N)cc2nc(-c3cc4ccccc4n3CC3CC3)n(CC3CN(C(=O)c4ccc(C#N)cc4)C3)c12 (stereo partly drawn) [Example 449, 4-[3-({5-[(7R)-7-amino-2-azabicyclo[2.2.1]heptane-2-carbonyl]-2-[1-(cyclopropylmethyl)-1H-indol-2-yl]-7-methyl-1H-1,3-benzodiazol-1-yl}methyl)azetidine-1-carbonyl]benzonitrile]",44
14,"COc1ccc2cc(-c3nc4cc(C(=O)N5C[C@H]6CC[C@@H]5[C@@H]6N)cc(OC)c4n3CC3CN(c4cccnc4C#N)C3)n(CC3CC3)c2n1 [Example 35, 3-[3-({5-[(1R,4R,7R)-7-amino-2-azabicyclo[2.2.1]heptane-2-carbonyl]-2-[1-(cyclopropylmethyl)-6-methoxy-1H-pyrrolo[2,3-b]pyridin-2-yl]-7-methoxy-1H-1,3-benzodiazol-1-yl}methyl)azetidin-1-yl]pyridine-2-carbonitrile]",90
15,"COc1cc(C(=O)N2CC3CCC2[C@@H]3N)cc2nc(-c3cc4ccccc4n3CC3CC3)n(CC3CC3)c12 (stereo partly drawn) [Example 476, (7R)-2-[1-(cyclopropylmethyl)-2-[1-(cyclopropylmethyl)-1H-indol-2-yl]-7-methoxy-1H-1,3-benzodiazole-5-carbonyl]-2-azabicyclo[2.2.1]heptan-7-amine]",100
16,"COc1cc(C(=O)N2C[C@H](N)C[C@@H](F)C2)cc2nc(-c3cc4ccccc4n3CC3CC3)n(Cc3ccccn3)c12 [Example 293, (3R,5R)-1-{2-[1-(cyclopropylmethyl)-1H-indol-2-yl]-7-methoxy-1-[(pyridin-2-yl)methyl]-1H-1,3-benzodiazole-5-carbonyl}-5-fluoropiperidin-3-amine]",2660
17,"COc1cc(N2CC(Cn3c(-c4cc5cccnc5n4CC4CC4)nc4cc(C(=O)N5C[C@H]6CC[C@@H]5[C@@H]6N)cc(OC)c43)C2)ccn1 [Example 49, (1R,4R,7R)-2-{2-[1-(cyclopropylmethyl)-1H-pyrrolo[2,3-b]pyridin-2-yl]-7-methoxy-1-{[1-(2-methoxypyridin-4-yl)azetidin-3-yl]methyl}-1H-1,3-benzodiazole-5-carbonyl}-2-azabicyclo[2.2.1]heptan-7-amine]",126
18,"COc1ccc2cc(-c3nc4cc(C(=O)N5C[C@H]6CC[C@@H]5[C@@H]6N)cc(OC)c4n3CC3CN(c4ncncc4C#N)C3)n(CC3CC3)c2n1 [Example 24, 4-[3-({5-[(1R,4R,7R)-7-amino-2-azabicyclo[2.2.1]heptane-2-carbonyl]-2-[1-(cyclopropylmethyl)-6-methoxy-1H-pyrrolo[2,3-b]pyridin-2-yl]-7-methoxy-1H-1,3-benzodiazol-1-yl}methyl)azetidin-1-yl]pyrimidine-5-carbonitrile]",68
19,"Cc1cc(C(=O)N2CC3CCC2[C@@H]3N)cc2nc(-c3cc4cccnc4n3CC3CC3)n(CC3CN(C(=O)c4ccc(C#N)cc4)C3)c12 (stereo partly drawn) [Example 471, 4-[3-({5-[(7R)-7-amino-2-azabicyclo[2.2.1]heptane-2-carbonyl]-2-[1-(cyclopropylmethyl)-1H-pyrrolo[2,3-b]pyridin-2-yl]-7-methyl-1H-1,3-benzodiazol-1-yl}methyl)azetidine-1-carbonyl]benzonitrile]",228
20,"COc1cc(C(=O)N2C[C@H]3CC[C@@H]2[C@@H]3N)cc2nc(-c3cc4ccccc4n3CC3CC3)n(CC3CN(C(=O)c4cccc(C(=O)O)c4)C3)c12 [Example 137, 3-[3-({5-[(1R,4R,7R)-7-amino-2-azabicyclo[2.2.1]heptane-2-carbonyl]-2-[1-(cyclopropylmethyl)-1H-indol-2-yl]-7-methoxy-1H-1,3-benzodiazol-1-yl}methyl)azetidine-1-carbonyl]benzoic acid]",11
21,"N[C@@H]1C2CCC1N(C(=O)c1cc(Cl)c3c(c1)nc(-c1cc4ccccc4n1CC1CC1)n3CC1CN(C(=O)c3ccccc3)C1)C2 (stereo partly drawn) [Example 143, (1R,4R,7R)-2-{1-[(1-benozylazetidin-3-yl)methyl]-7-chloro-2-[1-(cyclopropylmethyl)-1H-indol-2-yl]-1H-1,3-benzodiazole-5-carbonyl}-2-azabicyclo[2.2.1]heptan-7-amine]",23
22,"COc1cc(C(=O)N2C[C@H]3CC[C@@H]2[C@@H]3N)cc2nc(-c3cc4ccccc4n3CC3CC3)n(CC3CN(c4ccnc(C#N)n4)C3)c12 [Example 1, 4-(3-((5-((1R,4R,7R)-7-amino-2-azabicyclo[2.2.1]heptane-2-carbonyl)-2-(1-(cyclopropylmethyl)-1H-indol-2-yl)-7-methoxy-1H-benzo[d]imidazol-1-yl)methyl)azetidin-1-yl)pyrimidine-2-carbonitrile]",14
